Measured values from ChEMBL document CHEMBL1201862, “PubChem BioAssay data set” (2004).
Each block holds one compound with its values, some of them ahead of it. Activity calls are given as the source filed them.

Assays:
Candida albicans = experiment: Candida growth inhibition combined with fluconazole – CaCi-2 strain, Alamar Blue, dry powder, set 3, dose response (AID 488907); type: functional, organism-based
[1] = viability of PTEN-deleted HCT116 cells – cell-based, HCT116 PTEN knockout, dose response (AID 1047); type: functional;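 also: HCT116 colon tumor cells with PTEN knocked out; cells exposed to compound for 60 hours before readout; potency for loss of cell viability measured by luminescence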
[2] = viability of HCT116 lacking mutant beta-catenin – cell-based, human colon tumor, dose response (AID 1045); type: functional;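 also: HCT116 colon tumor cells with beta catenin knocked out; cells exposed to compound for 60 hours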
[3] = target: T1, Microphthalmia-associated transcription factor (Homo sapiens, UniProt O75030); experiment: reducers of TRPM1 reporter luminescence, concentration series – cell-based, SK-MEL-5, cherry-picked, set 3, MITF inhibitor project, dose response (AID 493073); type: functional;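 also: SK-MEL-5 melanoma cells with luciferase driven by the MITF target TRPM1 promoter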
T1 sequence (O75030 whole entry): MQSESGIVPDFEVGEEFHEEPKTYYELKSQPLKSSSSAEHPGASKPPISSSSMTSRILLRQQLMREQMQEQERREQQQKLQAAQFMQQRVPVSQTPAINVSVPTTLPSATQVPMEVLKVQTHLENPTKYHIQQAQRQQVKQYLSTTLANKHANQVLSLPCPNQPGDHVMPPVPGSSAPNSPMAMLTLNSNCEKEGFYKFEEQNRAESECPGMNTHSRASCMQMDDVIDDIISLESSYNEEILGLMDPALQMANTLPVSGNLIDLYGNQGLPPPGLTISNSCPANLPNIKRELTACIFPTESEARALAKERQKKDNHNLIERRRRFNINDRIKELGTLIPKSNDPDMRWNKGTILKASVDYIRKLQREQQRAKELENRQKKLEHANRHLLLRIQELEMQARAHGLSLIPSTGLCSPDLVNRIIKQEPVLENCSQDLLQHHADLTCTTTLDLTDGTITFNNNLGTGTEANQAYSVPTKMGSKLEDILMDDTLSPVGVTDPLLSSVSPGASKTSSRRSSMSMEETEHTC

A-375 = experiment: MITF: Counter assay: A375 proliferation Measured in Cell-Based System Using Plate Reader - 2084-03_Inhibitor_Dose_DryPowder_Activity. [Related pubchem assays (depositor defined):AID488944]; type: functional; conditions: Homo sapiens
[4] = target: T2, Short transient receptor potential channel 4 (Mus musculus, UniProt Q9QUQ5); experiment: calcium entry via TRPC4 opening agents – cell-based, HEK293 TRPC4/mu-opioid, Fluo-4 calcium, dose response (AID 434937); type: functional
T2 sequence (Q9QUQ5 whole entry): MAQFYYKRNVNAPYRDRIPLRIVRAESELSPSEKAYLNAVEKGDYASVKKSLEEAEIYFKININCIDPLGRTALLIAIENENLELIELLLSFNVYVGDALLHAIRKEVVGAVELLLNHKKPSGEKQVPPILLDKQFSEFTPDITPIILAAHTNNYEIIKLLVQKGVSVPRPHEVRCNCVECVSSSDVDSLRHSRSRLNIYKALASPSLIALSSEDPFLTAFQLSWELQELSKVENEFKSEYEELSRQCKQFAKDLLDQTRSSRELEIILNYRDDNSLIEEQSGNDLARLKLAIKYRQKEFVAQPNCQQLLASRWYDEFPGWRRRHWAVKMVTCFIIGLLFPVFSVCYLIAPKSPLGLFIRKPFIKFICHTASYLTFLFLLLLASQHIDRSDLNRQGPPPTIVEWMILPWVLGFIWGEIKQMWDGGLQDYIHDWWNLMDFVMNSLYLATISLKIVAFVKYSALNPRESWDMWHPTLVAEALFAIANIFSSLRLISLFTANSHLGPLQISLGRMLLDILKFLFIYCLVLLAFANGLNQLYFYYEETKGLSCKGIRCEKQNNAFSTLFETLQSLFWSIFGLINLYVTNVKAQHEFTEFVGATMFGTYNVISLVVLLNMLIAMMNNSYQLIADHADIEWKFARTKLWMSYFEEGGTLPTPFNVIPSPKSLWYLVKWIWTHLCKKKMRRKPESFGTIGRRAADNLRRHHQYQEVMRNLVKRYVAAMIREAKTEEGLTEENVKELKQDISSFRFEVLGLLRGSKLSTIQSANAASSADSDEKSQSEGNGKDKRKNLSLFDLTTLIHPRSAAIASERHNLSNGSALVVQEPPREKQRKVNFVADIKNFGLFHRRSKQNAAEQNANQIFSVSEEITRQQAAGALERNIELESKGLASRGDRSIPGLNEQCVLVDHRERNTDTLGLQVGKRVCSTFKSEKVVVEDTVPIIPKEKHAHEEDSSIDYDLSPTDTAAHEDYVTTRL

[5] = target: Delta-type opioid receptor (Homo sapiens, UniProt P41143); experiment: Counterscreen for agonists of heterodimerization of the mu 1 (OPRM1) and delta 1 (OPRD1) opioid receptors: Luminescence-based cell-based high throughput dose response assay to identify agonists of OPRD1 homodimerization. [Related pubchem assays (depositor defined):AID504326, AID504355, AID504692, AID504904, AID504905]; type: functional
Sequence of Delta-type opioid receptor (P41143 whole entry): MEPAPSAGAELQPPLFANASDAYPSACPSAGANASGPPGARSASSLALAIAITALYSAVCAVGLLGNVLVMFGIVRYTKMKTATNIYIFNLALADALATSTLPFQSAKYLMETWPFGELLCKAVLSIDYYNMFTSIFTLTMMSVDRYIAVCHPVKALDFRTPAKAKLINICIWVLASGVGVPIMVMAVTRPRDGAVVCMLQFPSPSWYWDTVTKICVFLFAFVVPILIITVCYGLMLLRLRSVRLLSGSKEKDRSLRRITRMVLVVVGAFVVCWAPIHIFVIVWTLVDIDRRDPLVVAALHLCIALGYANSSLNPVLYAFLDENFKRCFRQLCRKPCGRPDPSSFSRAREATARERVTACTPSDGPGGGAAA

Mu-type opioid receptor = Mu-type opioid receptor (Homo sapiens, UniProt P35372); experiment: Counterscreen for agonists of heterodimerization of the mu 1 (OPRM1) and delta 1 (OPRD1) opioid receptors: Luminescence-based cell-based high throughput dose response assay to identify agonists of OPRM1 homodimerization.; type: functional;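 also: U2OS cells expressing OPRM1 and beta-arrestin as split beta-galactosidase partners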
Sequence of Mu-type opioid receptor (P35372 whole entry): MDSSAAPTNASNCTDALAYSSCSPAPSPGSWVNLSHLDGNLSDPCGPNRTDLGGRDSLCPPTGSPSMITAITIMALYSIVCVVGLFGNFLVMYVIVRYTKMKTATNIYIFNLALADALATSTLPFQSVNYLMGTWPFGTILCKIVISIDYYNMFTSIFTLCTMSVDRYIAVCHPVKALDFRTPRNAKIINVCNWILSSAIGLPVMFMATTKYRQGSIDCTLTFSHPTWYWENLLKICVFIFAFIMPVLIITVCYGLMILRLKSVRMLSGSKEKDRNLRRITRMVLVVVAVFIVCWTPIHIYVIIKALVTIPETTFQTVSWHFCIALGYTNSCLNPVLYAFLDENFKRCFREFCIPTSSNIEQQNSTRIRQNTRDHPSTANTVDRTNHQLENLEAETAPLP

[6] = target: 5-hydroxytryptamine receptor 5A (Homo sapiens, UniProt P47898); experiment: Counterscreen for agonists of OPRM1-OPRD1 heterodimerization: luminescence-based cell-based high throughput dose response assay to identify agonists of 5-hydroxytryptamine (serotonin) 5A receptor (HTR5A). [Related pubchem assays (depositor defined):AID504326, AID504355, AID504692, AID504904, AID504905]; type: functional
Sequence of 5-hydroxytryptamine receptor 5A (P47898 whole entry): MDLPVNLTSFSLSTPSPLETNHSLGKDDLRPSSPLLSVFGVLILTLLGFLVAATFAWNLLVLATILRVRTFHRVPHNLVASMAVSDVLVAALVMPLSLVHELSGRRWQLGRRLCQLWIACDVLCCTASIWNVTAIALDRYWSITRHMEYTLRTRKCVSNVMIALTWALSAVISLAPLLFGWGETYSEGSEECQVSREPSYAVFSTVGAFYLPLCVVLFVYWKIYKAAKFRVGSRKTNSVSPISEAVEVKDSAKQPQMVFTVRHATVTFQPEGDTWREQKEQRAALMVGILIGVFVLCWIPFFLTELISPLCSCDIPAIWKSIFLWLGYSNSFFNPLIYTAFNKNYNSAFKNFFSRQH

Escherichia coli [7] = experiment: microbe, parasite or virus in culture
Escherichia coli [8] = experiment: microbe, parasite or virus in culture; remark: listed apart in the source

Structure (SMILES): COc1cccnc1N1CCN(C(=O)c2ccc(Cl)cc2)CC1
AC50 (Candida albicans): 12.3 µM (active)

Structure (SMILES): Cc1ccc(Cn2c(=N)n(CC(=O)c3ccc([N+](=O)[O-])cc3)c3ccccc32)cc1
EC50 [1]: 5.32 µM (active)
EC50 [2]: 4.07 µM (active)
AC50 [3]: 6.42 µM (active)
AC50 (A-375): 33.5 µM (active)

EC50 [4]: 1.06 µM (active)
EC50 [5]: > 92.5 µM (inactive)
EC50 (Mu-type opioid receptor): > 92.5 µM (inactive)
EC50 [6]: > 92.5 µM (inactive)
Structure (SMILES): COc1ccc(C(CNC(=O)CCOc2ccccc2)N(C)C)cc1 (stereo unspecified)

Structure (SMILES): COc1ccc(C)cc1S(=O)(=O)N(C)CC(=O)N1CCC(C(N)=O)CC1
AC50 (Escherichia coli [7]): 25.7 µM (active)
AC50 (Escherichia coli [8]): > 380 µM (inactive)
